Counter-ions that a name gives are not always drawn. Like-named read-outs stand apart in the source and are kept apart here.
Key:
Dopamine D-3 receptor = target: T1, Dopamine D-3 receptor (Homo sapiens, UniProt P35462); experiment: Dopamine D-3 radioligand binding (3H-spiroperidol, human D3-transfected CHO cells); conditions: 3H-spiroperidol 0.1 nM, pH 7.4, read-out: Radioligand Binding Results, D3 (apparent Ki)
T1 construct: expressed in transfected cells; host or cells: CHO cells (from Dr. J. C. Schwartz, INSERM, Paris)
Text: (§1) The compound of formula I is therefore useful in the treatment or prevention of psychotic disorders, such as schizophrenia. […] Specifically, the standard methods for determining neuroleptic activity are based on Dopamine D-2, Dopamine D-3, Dopamine D4, 5-hydroxytryptamine-1A (5-HT-1A), 5-hydroxytryptamine-2C (5-HT-2C), and 5-hydroxytryptamine-2A (5-HT-2A) receptor binding studies. Tissues or membranes used to perform these studies are derived from rat, pig, or from cell lines expressing human receptor subtypes. LTK-cells expressing the human D2Long receptor were obtained from Dr. Olivier Civelli, Oregon Health Sciences University, Portland, Oreg. Chinese hamster ovary cells (CHO) expressing the human D3 receptor were obtained from Dr. J. C. […]
(§2) The following protocol describes one possible method for determining activity for the compound of formula I. Specific assay conditions for each receptor is described in Table 1, below. […] Non-specific binding is determined by radioligand binding in the presence of a saturating excess of a known competitor for the receptor of interest (as listed in Table 1). […] Membrane-bound ligand is determined by liquid scintillation counting of the filters in Ready-Safe scintillation cocktail (for tritiated ligands), or by direct counting in a gamma counter (for [^125 .vertline.] ligands). […]

Dopamine D-4 receptor = target: T2, Dopamine D-4 receptor (Homo sapiens, UniProt P21917); experiment: Dopamine D-4 radioligand binding (3H-spiroperidol, human D4-transfected COS-7 cells); conditions: 3H-spiroperidol 0.1 nM, pH 7.4, read-out: Radioligand Binding Results, D4 (apparent Ki)
T2 construct: expressed in transfected cells; host or cells: COS-7 cells
T2 sequence (P21917 1-419): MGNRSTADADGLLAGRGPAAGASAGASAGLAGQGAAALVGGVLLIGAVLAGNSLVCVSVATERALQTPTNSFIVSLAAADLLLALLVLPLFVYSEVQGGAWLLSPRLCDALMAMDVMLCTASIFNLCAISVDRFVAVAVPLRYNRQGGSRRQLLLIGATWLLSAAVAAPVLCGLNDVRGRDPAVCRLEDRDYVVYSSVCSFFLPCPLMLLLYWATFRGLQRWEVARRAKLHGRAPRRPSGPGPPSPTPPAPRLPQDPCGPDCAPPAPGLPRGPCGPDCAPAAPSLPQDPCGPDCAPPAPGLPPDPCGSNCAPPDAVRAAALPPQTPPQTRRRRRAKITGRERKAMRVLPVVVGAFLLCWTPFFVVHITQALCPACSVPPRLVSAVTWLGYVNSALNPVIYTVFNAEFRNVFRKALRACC
Text: as §1, §2

5HT-2A receptor = target: T3, 5HT-2A receptor (Rattus norvegicus, UniProt P14842); experiment: 5HT-2A radioligand binding (3H-ketanserin, rat frontal cortex); conditions: 3H-ketanserin 0.4 nM, pH 7.7, read-out: Radioligand Binding Results, 5HT2 (IC50)
T3 construct: rat frontal; from tissue; host or cells: rat frontal cortex
Text: as §1, §2

5HT-1A receptor = target: T4, 5HT-1A receptor (Rattus norvegicus, UniProt P19327); experiment: 5HT-1A radioligand binding (3H-8OH-DPAT, rat cortex); conditions: 3H-8OH-DPAT 1.5 nM, pH 7.7, read-out: Radioligand Binding Results, 5HT1A (IC50)
T4 construct: rat cortex; from tissue; host or cells: rat cortex
T4 sequence (P19327 1-422): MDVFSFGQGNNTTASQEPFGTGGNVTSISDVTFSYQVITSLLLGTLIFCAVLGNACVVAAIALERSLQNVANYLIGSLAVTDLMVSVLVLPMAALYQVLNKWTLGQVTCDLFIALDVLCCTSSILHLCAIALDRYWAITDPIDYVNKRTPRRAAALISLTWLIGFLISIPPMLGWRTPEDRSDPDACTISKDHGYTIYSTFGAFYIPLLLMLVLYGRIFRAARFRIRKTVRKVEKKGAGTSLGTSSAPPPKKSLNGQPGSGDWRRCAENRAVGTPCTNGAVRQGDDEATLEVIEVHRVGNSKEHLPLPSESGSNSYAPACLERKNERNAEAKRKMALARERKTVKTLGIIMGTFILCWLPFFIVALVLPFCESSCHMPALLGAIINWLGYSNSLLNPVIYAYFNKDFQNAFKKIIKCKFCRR
Text: as §1, §2

aqueous solubility = assay type: physicochemical; conditions: dihydrochloride salt, at about 25° C.
[1] = titration with 0.2032 Molar sodium hydroxide (pKa); assay type: physicochemical; conditions: dihydrochloride titrated with 0.2032 M NaOH
Procedure: The compound (5.0 g, 12.1 mmol) from Example 1 was suspended in 75 mL of THF at room temperature, and then 1.97 mL of concentrated hydrochloric acid was slowly added over 30 min affording a gummy solid. Water (5 mL) was added and the gummy solids were stirred for 6 hours to produce a finely divided solid which was granulated overnight. The mixture was filtered and the filter cake was washed with THF (10 mL). The product was dried in vacuo at 25° C. overnight under a nitrogen bleed to give 5.87 g of the title dihydrochloride compound as a tan solid (mp=232-240° C. with decomposition).

T3 sequence (P14842 whole entry): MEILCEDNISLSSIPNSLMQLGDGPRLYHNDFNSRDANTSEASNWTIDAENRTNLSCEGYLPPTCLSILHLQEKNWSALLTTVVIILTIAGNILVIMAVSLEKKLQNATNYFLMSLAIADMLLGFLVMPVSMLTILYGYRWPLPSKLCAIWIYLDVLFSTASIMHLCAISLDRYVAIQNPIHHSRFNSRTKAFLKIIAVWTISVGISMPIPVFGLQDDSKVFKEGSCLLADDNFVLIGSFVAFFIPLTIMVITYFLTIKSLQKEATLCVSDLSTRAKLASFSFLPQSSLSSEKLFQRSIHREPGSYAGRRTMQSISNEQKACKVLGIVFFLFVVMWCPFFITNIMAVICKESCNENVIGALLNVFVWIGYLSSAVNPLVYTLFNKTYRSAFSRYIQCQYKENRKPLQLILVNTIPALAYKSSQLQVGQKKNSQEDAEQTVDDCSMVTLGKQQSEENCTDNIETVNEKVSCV
T1 sequence (P35462 whole entry): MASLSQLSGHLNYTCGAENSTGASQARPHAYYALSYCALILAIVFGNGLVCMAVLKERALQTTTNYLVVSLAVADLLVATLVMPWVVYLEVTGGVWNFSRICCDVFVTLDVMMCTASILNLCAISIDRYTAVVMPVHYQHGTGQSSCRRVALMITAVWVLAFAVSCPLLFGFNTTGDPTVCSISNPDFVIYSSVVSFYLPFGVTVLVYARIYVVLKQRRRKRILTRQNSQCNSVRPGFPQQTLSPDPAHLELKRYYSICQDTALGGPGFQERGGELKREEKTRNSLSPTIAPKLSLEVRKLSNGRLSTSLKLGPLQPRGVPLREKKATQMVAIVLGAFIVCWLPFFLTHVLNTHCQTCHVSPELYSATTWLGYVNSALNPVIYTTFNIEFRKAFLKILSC

Structure (SMILES)	Ki (Dopamine D-3 receptor) [nM]	Ki (Dopamine D-4 receptor) [nM]	IC50 (5HT-2A receptor) [nM]	IC50 (5HT-1A receptor) [nM]	aqueous solubility relative to ziprasidone hydrochloride (times higher) (aqueous solubility)	solubility (aqueous solubility; water) [mg/mL]	pKa ([1]; first equivalence point pH 4.33, read-out: pKa (first))	pKa ([1]; second equivalence point pH 8.22, read-out: pKa (second))
N=C(c1ccccc1S)N1CCN(CCc2cc3c(cc2Cl)NC(=O)C3)CC1 [Example 1, 1-[2-(6-chloro-2,3-dihydro-2-oxo-1H-indol-5-yl)ethyl]-4-[imino(2-mercaptophenyl)methyl]piperazine]	5.8	59.2	0.35	12	–	–	–	–
N=C(c1ccccc1S)N1CCN(CCc2cc3c(cc2Cl)NC(=O)C3)CC1 [Example 2, 1-[2-(6-Chloro-2.3-dihydro-2-oxo-1H-indol-5-yl)ethyl]-4-[(imino(2-mercaptophenyl)methyl]piperazinedihydrochloride]	–	–	–	–	approximately 300 times	~25	3.1	5.5
